What all share (type): biochemical
One experiment has as its target CuZnSOD (UniProt P00442). Briefly: Superoxide dismutase (SOD) spectrophotometric XTT assay, Protocol 1. For orientation: Formazan colour is commonly taken as a measure of viable cells.
The next experiment relates to STS. The experiment is described as follows: Plate assay, % inhibition. As for the experimental part:
(§1) The STS inhibition provided by the compounds was determined in accordance with the placental microsomes assay of Protocol 4 and a plate assay.

In a further experiment the target is T1, steroid sulphatase (STS) (Homo sapiens, UniProt P08842).
T1 sequence (P08842 22-583): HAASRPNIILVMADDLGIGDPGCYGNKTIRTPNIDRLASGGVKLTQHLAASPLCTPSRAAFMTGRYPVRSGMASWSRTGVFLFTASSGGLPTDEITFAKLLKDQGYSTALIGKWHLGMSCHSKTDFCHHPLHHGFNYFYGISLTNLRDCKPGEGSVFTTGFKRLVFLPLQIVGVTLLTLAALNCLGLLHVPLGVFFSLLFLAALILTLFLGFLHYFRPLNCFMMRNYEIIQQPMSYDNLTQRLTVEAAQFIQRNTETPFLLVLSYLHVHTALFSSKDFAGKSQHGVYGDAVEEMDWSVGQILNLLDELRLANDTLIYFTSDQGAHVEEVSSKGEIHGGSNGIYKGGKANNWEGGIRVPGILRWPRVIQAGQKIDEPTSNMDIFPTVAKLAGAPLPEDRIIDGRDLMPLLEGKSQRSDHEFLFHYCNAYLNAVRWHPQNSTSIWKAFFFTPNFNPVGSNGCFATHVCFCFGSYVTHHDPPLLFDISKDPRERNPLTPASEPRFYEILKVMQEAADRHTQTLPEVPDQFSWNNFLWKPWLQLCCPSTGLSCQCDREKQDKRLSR
Briefly: Inhibition of steroid sulphatase activity in placental microsomes, Protocol 4. Particulars: for inhibition at 0.01 µM: read-out: Placental Microsomes, % inhibition 10 nM; for inhibition at 1 µM: read-out: Placental Microsomes, % inhibition 1 μM. How it is done: Sulphatase-positive human placenta from normal term pregnancies are thoroughly minced with scissors and washed once with cold phosphate buffer (pH 7.4, 50 mM) then resuspended in cold phosphate buffer (5 ml/g tissue). Homogenisation is accomplished with an Ultra-Turrax homogeniser, using three 10 second bursts separated by 2 minute cooling periods in ice. Nuclei and cell debris are removed by centrifuging (4° C.) at 2000 g for 30 minutes and portions (2 ml) of the supernatant are stored at […] The protein concentration of the supernatants is determined by the method of Bradford (Anal. Biochem., 72, 248-254 (1976)).
Incubations (1 ml) are carried out using a protein concentration of […], substrate concentration of […] [6,7-3H]oestrone-3-sulphate (specific activity 60 Ci/mmol from New England Nuclear, Boston, Mass., U.S.A.) and an incubation time of 20 minutes at 37° C. If necessary eight concentrations of compounds are employed: 0 (i.e. control); 0.05 mM; 0.1 mM; 0.2 mM; 0.4 mM; 0.6 mM; 0.8 mM; 1.0 mM. After incubation each sample is cooled and the medium (1 ml) was pipetted into separate tubes containing [14C]oestrone (7×10^3 dpm) (specific activity 97 Ci/mmol from Amersham International Radiochemical Centre, Amersham, U.K.). The mixture is shaken thoroughly for 30 seconds with toluene (5 ml). Experiments have shown that >90% [14C]oestrone and <0.1% [3H]oestrone-3-sulphate is removed from the aqueous phase by this treatment. A portion (2 ml) of the organic phase was removed, evaporated and the 3H and 14C content of the residue determined by scintillation spectrometry. The mass of oestrone-3-sulphate hydrolysed is calculated from the 3H counts obtained (corrected for the volumes of the medium and organic phase used, and for recovery of [14C]oestrone added) and the specific activity of the substrate.
as §1

[1] abbreviates: xanthine oxidase/XTT, 24° C., 30 minutes, read-out: IC 50/μM (+/− SEM) SOD Inhibition.
Where [2] appears, read: read-out: IC 50/μM (+/− SEM) SOD Inhibition, xanthine oxidase/XTT, 24° C., 30 minutes.

Each structure is given as a SMILES string. Like-named read-outs stand apart in the source and are kept apart here. Some results are limits rather than exact numbers.

Protocol for CuZnSOD: In this reaction, 3′-{1-[(phenylamino)-carbonyl]-3,4-tetrazolium}-bis(4-methoxy-6-nitro)benzenesulfonic acid hydrate (XTT) is converted to a colourimetric product by the action of superoxide ions (produced by xanthine oxidase (XO) and xanthine). Production of superoxide ions is inhibited by SOD resulting in decreased product. The ability of test compounds to inhibit SOD is measured by their ability to restore production of the coloured product. Reactions were performed in a total volume of 0.1 ml of buffer A (42 mM Na2CO3 (pH 9.4), 0.1 mM xanthine (Sigma), 0.1 mM EDTA, 0.026 mM XTT (Sigma)).
The reaction was incubated at 24° C. for 30 minutes and products determined by measuring absorobance at 470 nm. All determinations were made in duplicate/triplicate.
SOD activity was measured in accordance with Protocol 1.
Initial analyses were performed using test compounds at 100 μM.

As for `CC12CCC3c4cc(S(C)(=O)=O)c(O)cc4CCC3C1CCC2=O` (centres unmarked) [Compound 19, 2-methylsulfonylestrone], on CuZnSOD (setting [1]), the IC50 was > 100 µM. Take `COc1cc2c(cc1O)CCC1C2CCC2(C)C1CCC2(O)Cc1ccc(C(C)(C)C)cc1` (stereo not drawn) [Compound 23, 2-methoxy-17α-(4-tert-butylbenzyl)oestradiol]: the IC50 at CuZnSOD (setting [2]) is > 100 µM.

As to `CCOc1cc2c(cc1O)CCC1C2CCC2(C)C(O)CCC12` (centres unmarked) [Compound 2, 2-ethoxyestradiol], at CuZnSOD (setting [1]), the IC50 worked out at 11 µM. Still for that read-out and setting: in the case of `CSc1cc2c(cc1O)CCC1C2CCC2(C)C(O)CCC12` (centres unmarked) [Compound 1, 2-methylsulfanylestradiol] it was 10 µM. On the same count and under the same terms, to `COc1cc2c3c(c(=O)oc2cc1O)CCCCC3` [Compound 14, 3-Hydroxy-2-methoxy-6-oxo-8,9,10,11-tetrahydro-7H-cyclohepta-[c][1]benzopyran] belongs 91 µM. On to `COc1cc2c(cc1O)CCC1C2CCC2(C)C1CCC2(O)Cc1ccccc1` (stereo not drawn) [Compound 13, 2-methoxy-17α-benzyl-estradiol], for which the IC50 on CuZnSOD (setting [2]) was 88 µM.

Regarding `CC12CCC3c4cc([N+](=O)[O-])c(O)cc4CCC3C1CCC2=O` (centres unmarked) [Compound 20, 2-nitroestrone], the IC50 at CuZnSOD (setting [1]) was > 100 µM. As for `CCSc1cc2c(cc1O)CCC1C2CC[C@]2(C)C(=O)CCC12` (some centres unmarked) [Compound 10, 2-ethylsulfanylestrone], the IC50 at CuZnSOD (setting [1]) amounted to 79 µM. Further, in the experiment on STS, the “Plate Assay, % inhibition 0.1 μM” value is recorded as <1%; the “Plate Assay, % inhibition 1 μM” value is reported as <4%; the “Plate Assay, % inhibition 10 μM” value is 14%. Turning to `CC12CCC3c4cc(Cl)c(O)cc4CCC3C1CCC2=O` (centres unmarked) [Compound 12, 2-chloroestrone], the IC50 at CuZnSOD (setting [1]) amounted to 83 µM.

On to `C=CCc1cc2c(cc1O)CCC1C2CCC2(C)C(=O)CCC12` (centres unmarked) [Compound 15, 2-allylestrone], for which the IC50 at CuZnSOD (setting [1]) was > 100 µM. Turning to `CSc1cc2c(cc1OS(N)(=O)=O)CCC1C2CC[C@@]2(C)C1CC[C@@]2(O)Cc1ccccc1` (stereo in doubt) [Compound 30, Sulfamic acid 17-benzyl-17-hydroxy-13-methyl-2-methylsulfanyl-7,8,9,11,12,13,14, 15,16,17-decahydro-6H-cyclopenta[a]phenanthren-3-yl ester], at steroid sulphatase (STS) (placental microsomes), the IC50 turned out to be 0.044 µM. At steroid sulphatase (STS), the inhibition at 0.01 µM amounted to 15.5% and the inhibition at 1 µM came out at 93%. Further, at steroid sulphatase (STS) (read-out: Placental Microsomes, % inhibition 100 nM), the inhibition at 0.1 µM came to 69.7%. For the same compound, the inhibition at 10 µM at steroid sulphatase (STS) (read-out: Placental Microsomes, % inhibition 10 μM) was determined as 97.4%. In addition, in the experiment on STS, the “Plate Assay, % inhibition 0.1 μM” value was <1%; the “Plate Assay, % inhibition 1 μM” value is <1%; the “Plate Assay, % inhibition 10 μM” value worked out at 31%.

For `CC12CCC3c4cc(I)c(O)cc4CCC3C1CCC2=O` (centres unmarked) [Compound 16, 2-iodoestrone], at CuZnSOD (setting [1]), the IC50 was > 100 µM. Same read-out and setting: in the case of `COc1cc2c(cc1O)CCC1C2CC[C@]2(C)CCCC12` (some centres unmarked) [Compound 29, 2-methoxy-17-deoxyoestrone] it was > 100 µM; in that of `CCc1cc2c(cc1O)CCC1C2CCC2(C)C(=O)CCC12` (centres unmarked) [Compound 21, 2-ethylestrone], > 100 µM. Still for that read-out and setting: in the case of `COc1cc2c(cc1N)CCC1C2CCC2(C)C(=O)CCC12` (centres unmarked) [Compound 9, 2-methoxy-3-aminoestrone] it was 79 µM.

For the compound `CCSc1cc2c(cc1OS(N)(=O)=O)CCC1C2CC[C@]2(C)C(=O)CCC12` (some centres unmarked) [Compound 38], at steroid sulphatase (STS), the inhibition at 0.01 µM is < 5% and the inhibition at 1 µM was determined as 66%. In the experiment with STS, the “Plate Assay, % inhibition 0.1 μM” value was <1%; the “Plate Assay, % inhibition 1 μM” value came out at 1%; the “Plate Assay, % inhibition 10 μM” value amounted to 16%. For `C[S+]([O-])c1cc2c(cc1O)CCC1C2CCC2(C)C(=O)CCC12` (centres unmarked) [Compound 18, 2-methylsulfoxyestrone], at CuZnSOD (setting [1]), the IC50 is > 100 µM. Still for that read-out and setting: to `CCc1cc2c(cc1OS(N)(=O)=O)CCC1C2CCC2(C)C(=O)CCC12` (centres unmarked) [Compound 26, 2-ethylestrone-3-O-sulphamate] belongs > 100 µM; to `CC12CCC3c4cc(F)c(O)cc4CCC3C1CCC2=O` (centres unmarked) [Compound 11, 2-fluoroestrone], 81 µM; to `COc1cc2c(cc1O)CCC1C2CCC2(C)C(=O)CCC12` (centres unmarked) [Compound 5, 2-methoxyestrone, reference compound], 14 µM. Consider `CSc1cc2c(cc1O)CCC1C2CCC2(C)C1CCC2(O)Cc1ccc(C(C)(C)C)cc1` (centres unmarked) [Compound 31, 17-(4-tert-Butyl-benzyl)-13-methyl-2-methylsulfanyl-7,8,9,11,12,13,14,15,16,17-decahydro-6H-cyclopenta[a]phenanthrene-3,17-diol], for which, in the experiment with STS, the “Plate Assay, % inhibition 0.1 μM” value was <1%; the “Plate Assay, % inhibition 1 μM” value is given as <1%; the “Plate Assay, % inhibition 10 μM” value was 50%.

Take `CC12CCC3C(=CCc4cc(OS(N)(=O)=O)ccc43)C1CCC2=O` (centres unmarked) [Compound 27, equilin-3-O-sulphamate]: the IC50 on CuZnSOD (setting [1]) was > 100 µM. `CCSc1cc2c(cc1O)CCC1C2CCC2(C)C(O)CCC12` (centres unmarked) [Compound 6, 2-ethylsulfanylestradiol]: the IC50 on CuZnSOD (setting [1]) was found to be 14 µM. The same measure, in the same setting: in the case of `COc1cc2c(c([N+](=O)[O-])c1O)CCC1C2CCC2(C)C(=O)CCC12` (centres unmarked) [Compound 22, 2-methoxy-4-nitroestrone] it was > 100 µM; in that of `COc1cc2c(cc1O)CCC1C2CCC2(C)C(O)CCC12` (stereo not drawn) [Compound 4, 2-methoxy-17α-estradiol], 13 µM; in that of `CCOc1cc2c(cc1O)CCC1C2CCC2(C)C(=O)CCC12` (centres unmarked) [Compound 7, 2-ethoxyestrone], 19 µM.

In the case of `CSc1cc2c(cc1OS(N)(=O)=O)CCC1C2CCC2(C)C1CCC2(O)Cc1ccc(C(C)(C)C)cc1` (centres unmarked) [Compound 32, Sulfamic acid 17-(4-tert-butyl-benzyl)-17-hydroxy-13-methyl-2-methylsulfanyl-7,8,9,11,12,13,14,15,16,17-decahydro-6H-cyclopenta[a]phenanthren-3-yl ester], the inhibition at 1 µM on steroid sulphatase (STS) was 81.8%. Moreover, in the experiment with STS, the “Plate Assay, % inhibition 0.1 μM” value was <1%; the “Plate Assay, % inhibition 1 μM” value is <1%; the “Plate Assay, % inhibition 10 μM” value is recorded as 48%. For `CC12CCC3c4cc(C(F)F)c(O)cc4CCC3C1CCC2=O` (centres unmarked) [Compound 17, 2-difluoromethylestrone], the IC50 at CuZnSOD (setting [1]) was > 100 µM.

Take `CSc1cc2c(cc1O)CCC1C2CC[C@]2(C)C(=O)CCC12` (some centres unmarked) [Compound 8, 2-methylsulfanylestrone]: the IC50 on CuZnSOD (setting [1]) turned out to be 21 µM. Besides, in the experiment on STS, the “Plate Assay, % inhibition 0.1 μM” value is recorded as <1%; the “Plate Assay, % inhibition 1 μM” value amounted to 1%; the “Plate Assay, % inhibition 10 μM” value stood at 11%. For the compound `COc1cc2c(cc1O)CCC1C2CCC2(C)C(O)CCC12` (stereo not drawn) [Compound 3, 2-methoxy-17β-estradiol, reference compound], the IC50 on CuZnSOD (setting [1]) turned out to be 12 µM. Still for that read-out and setting: to `CSc1cc2c(cc1O)CCC1C2CC[C@]2(C)CCCC12` (some centres unmarked) [Compound 28, 2-methylsulfanyl-17-deoxyoestrone] belongs > 100 µM.

For orientation: inhibition means the drop in the measured response relative to a control, in per cent.
